The structures appear in SMILES notation. Where a SMILES comes first, the peptide text is derived from it. Bridges are numbered along the chain shown (N, C = ends). [ ]: non-standard residue; d: D form. The star is where a group is joined. Phe(4-COOH) = N[C@@H](Cc1ccc(C(=O)O)cc1)C(=O)O; Bip = N[C@@H](Cc1ccc(-c2ccccc2)cc1)C(=O)O; Ala(cPent) = N[C@@H](CC1CCCC1)C(=O)O; Cha = N[C@@H](CC1CCCCC1)C(=O)O; Gly(cPr) = N[C@H](C(=O)O)C1CC1; Chg = N[C@H](C(=O)O)C1CCCCC1; Phg = N[C@H](C(=O)O)c1ccccc1; Carboxymethyl = O=C(O)C*; Nle = CCCC[C@H](N)C(=O)O; Orn = NCCC[C@H](N)C(=O)O; Dab = NCC[C@H](N)C(=O)O; Abu = CC[C@H](N)C(=O)O; Dap = NC[C@H](N)C(=O)O

Among the data in US20250163104A1, “MACROCYCLIC IMMUNOMODULATORS” (priority 2021, published 2025) are IC50 values, retold here.

For one experiment, the target named is T1, human PD-1 / PD-L1-Ig binding on Jurkat cell line over-expressing human PD-1 (Jurkat-PD-1) (Homo sapiens, UniProt Q15116).
T1 construct: expressed in transfected cells; host or cells: Jurkat
T1 sequence (Q15116 25-288): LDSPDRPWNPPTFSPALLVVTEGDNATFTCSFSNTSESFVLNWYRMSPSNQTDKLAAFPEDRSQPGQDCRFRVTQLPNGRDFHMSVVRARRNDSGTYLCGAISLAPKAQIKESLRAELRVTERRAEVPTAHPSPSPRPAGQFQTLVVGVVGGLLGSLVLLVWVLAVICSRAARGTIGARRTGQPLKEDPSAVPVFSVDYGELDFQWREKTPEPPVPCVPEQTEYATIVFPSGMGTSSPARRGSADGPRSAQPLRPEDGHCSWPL
Briefly: Jurkat-PD-1 Cell Binding High-Content Screening Assay (CBA). The class given is cell-based. The conditions noted are these: Jurkat HPD1_PDL1 IC50, Jurkat-PD-1 cells, PE-labeled PD-L1-Ig 20 nM final. In a few lines:
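Binding of fluorescent PD-L1-Ig (phycoerythrin linked via the Ig tag, 20 nM final) to PD-1-overexpressing Jurkat cells was imaged after a 2 h, 37° C compound pretreatment and 1 hour ligand incubation.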
`CC[C@@H]1NC(=O)[C@H](Cc2c[nH]c3ccccc23)NC(=O)[C@H](CC(=O)O)NC(=O)[C@H](Cc2ccc(OCC(=O)O)cc2)NC(=O)[C@H](CN)NC(=O)CSC[C@@H](C(=O)N[C@@H](C)C(N)=O)NC(=O)[C@H]([C@@H](C)O)NC(=O)[C@H](C(C)C)NC(=O)[C@H](CC2CCCCC2)NC(=O)[C@H](CCN)NC(=O)[C@@H](CC(C)C)NC(=O)[C@H](CCCN)NC(=O)[C@H](C(C)C)NC(=O)[C@H](Cc2ccc(-c3ccccc3)cc2)NC1=O` [Compound 1729] ({CH2CO}-[Dap]Y(Carboxymethyl)DW[Abu][Bip]V[Orn][dL][Dab][Cha]VTCA-NH2; thioether N-14) returned an IC50 of 16.9 nM.
For the molecule `CC(C)C[C@H]1NC(=O)[C@H](CCCN)NC(=O)[C@H](C(C)C)NC(=O)[C@H](Cc2ccc(-c3ccccc3)cc2)NC(=O)[C@H](C2CCCCC2)NC(=O)[C@H](Cc2c[nH]c3ccccc23)NC(=O)[C@H](CC(=O)O)NC(=O)[C@H](Cc2ccc(OCC(=O)O)cc2)NC(=O)[C@H](CN)NC(=O)CSC[C@@H](C(=O)N[C@@H](C)C(N)=O)NC(=O)[C@H]([C@@H](C)O)NC(=O)[C@H](C(C)C)NC(=O)[C@H](CC2CCCCC2)NC(=O)[C@H](CCN)NC1=O` [Compound 1730] ({CH2CO}-[Dap]Y(Carboxymethyl)DW[Chg][Bip]V[Orn][dL][Dab][Cha]VTCA-NH2; thioether N-14), the half-maximal inhibitory concentration (IC50) was 32.4 nM.
On the same count and under the same terms, under `CC(C)C[C@H]1NC(=O)[C@H](CCCN)NC(=O)[C@H](C(C)C)NC(=O)[C@H](Cc2ccc(-c3ccccc3)cc2)NC(=O)[C@H](CC2CCCC2)NC(=O)[C@H](Cc2c[nH]c3ccccc23)NC(=O)[C@H](CC(=O)O)NC(=O)[C@H](Cc2ccc(OCC(=O)O)cc2)NC(=O)[C@H](CN)NC(=O)CSC[C@@H](C(=O)N[C@@H](C)C(N)=O)NC(=O)[C@H]([C@@H](C)O)NC(=O)[C@H](C(C)C)NC(=O)[C@H](CC2CCCCC2)NC(=O)[C@H](CCN)NC1=O` [Compound 1731] ({CH2CO}-[Dap]Y(Carboxymethyl)DW[Ala(cPent)][Bip]V[Orn][dL][Dab][Cha]VTCA-NH2; thioether N-14) stands 13 nM.

The experiment is the same for the next values; noted with them: Jurkat-PD-1 cells, PE-labeled PD-L1-Ig 20 nM final; read-out: Jurkat HPD1_PDL1 IC50.
With `CC(C)C[C@H]1NC(=O)[C@H](CCCN)NC(=O)[C@H](C(C)C)NC(=O)[C@H](Cc2ccc(-c3ccccc3)cc2)NC(=O)[C@H](C2CC2)NC(=O)[C@H](Cc2c[nH]c3ccccc23)NC(=O)[C@H](CC(=O)O)NC(=O)[C@H](Cc2ccc(OCC(=O)O)cc2)NC(=O)[C@H](CN)NC(=O)CSC[C@@H](C(=O)N[C@@H](C)C(N)=O)NC(=O)[C@H]([C@@H](C)O)NC(=O)[C@H](C(C)C)NC(=O)[C@H](CC2CCCCC2)NC(=O)[C@H](CCN)NC1=O` [Compound 1732] ({CH2CO}-[Dap]Y(Carboxymethyl)DW[Gly(cPr)][Bip]V[Orn][dL][Dab][Cha]VTCA-NH2; thioether N-14), the IC50 stood at 18.3 nM.
As to `CC[C@H](C)[C@@H]1NC(=O)[C@H](Cc2c[nH]c3ccccc23)NC(=O)[C@H](CC(=O)O)NC(=O)[C@H](Cc2ccc(OCC(=O)O)cc2)NC(=O)[C@H](CN)NC(=O)CSC[C@@H](C(=O)N[C@@H](C)C(N)=O)NC(=O)[C@H]([C@@H](C)O)NC(=O)[C@H](C(C)C)NC(=O)[C@H](CC2CCCCC2)NC(=O)[C@H](CCN)NC(=O)[C@@H](CC(C)C)NC(=O)[C@H](CCCN)NC(=O)[C@H](C(C)C)NC(=O)[C@H](Cc2ccc(-c3ccccc3)cc2)NC1=O` [Compound 1733] ({CH2CO}-[Dap]Y(Carboxymethyl)DWI[Bip]V[Orn][dL][Dab][Cha]VTCA-NH2; thioether N-14), the IC50 is 16.7 nM.
As to `CCCC[C@@H]1NC(=O)[C@H](Cc2c[nH]c3ccccc23)NC(=O)[C@H](CC(=O)O)NC(=O)[C@H](Cc2ccc(OCC(=O)O)cc2)NC(=O)[C@H](CN)NC(=O)CSC[C@@H](C(=O)N[C@@H](C)C(N)=O)NC(=O)[C@H]([C@@H](C)O)NC(=O)[C@H](C(C)C)NC(=O)[C@H](CC2CCCCC2)NC(=O)[C@H](CCN)NC(=O)[C@@H](CC(C)C)NC(=O)[C@H](CCCN)NC(=O)[C@H](C(C)C)NC(=O)[C@H](Cc2ccc(-c3ccccc3)cc2)NC1=O` [Compound 1734] ({CH2CO}-[Dap]Y(Carboxymethyl)DW[Nle][Bip]V[Orn][dL][Dab][Cha]VTCA-NH2; thioether N-14), the IC50 worked out at 10.8 nM.
The same measure, in the same setting: for `CCC[C@@H]1NC(=O)[C@H](Cc2c[nH]c3ccccc23)NC(=O)[C@H](CC(=O)O)NC(=O)[C@H](Cc2ccc(OCC(=O)O)cc2)NC(=O)[C@H](CN)NC(=O)CSC[C@@H](C(=O)N[C@@H](C)C(N)=O)NC(=O)[C@H]([C@@H](C)O)NC(=O)[C@H](C(C)C)NC(=O)[C@H](CC2CCCCC2)NC(=O)[C@H](CCN)NC(=O)[C@@H](CC(C)C)NC(=O)[C@H](CCCN)NC(=O)[C@H](C(C)C)NC(=O)[C@H](Cc2ccc(-c3ccccc3)cc2)NC1=O` [Compound 1735] the value was 13.6 nM.
For the molecule `CC(C)C[C@H]1NC(=O)[C@H](CCCN)NC(=O)[C@H](C(C)C)NC(=O)[C@H](Cc2ccc(-c3ccccc3)cc2)NC(=O)[C@H](c2ccccc2)NC(=O)[C@H](Cc2c[nH]c3ccccc23)NC(=O)[C@H](CC(=O)O)NC(=O)[C@H](Cc2ccc(OCC(=O)O)cc2)NC(=O)[C@H](CN)NC(=O)CSC[C@@H](C(=O)N[C@@H](C)C(N)=O)NC(=O)[C@H]([C@@H](C)O)NC(=O)[C@H](C(C)C)NC(=O)[C@H](CC2CCCCC2)NC(=O)[C@H](CCN)NC1=O` [Compound 1736] ({CH2CO}-[Dap]Y(Carboxymethyl)DW[Phg][Bip]V[Orn][dL][Dab][Cha]VTCA-NH2; thioether N-14), the IC50 turned out to be 14 nM.
With `CC(C)C[C@H]1NC(=O)[C@H](CCCN)NC(=O)[C@H](C(C)C)NC(=O)[C@H](Cc2ccc(-c3ccccc3)cc2)NC(=O)[C@H](C(C)C)NC(=O)[C@H](Cc2c[nH]c3ccccc23)NC(=O)[C@H](CC(=O)O)NC(=O)[C@H](Cc2ccc(OCC(=O)O)cc2)NC(=O)[C@H](CN)NC(=O)CSC[C@@H](C(=O)N[C@@H](C)C(N)=O)NC(=O)[C@H](CN)NC(=O)[C@H](C(C)C)NC(=O)[C@H](CC2CCCCC2)NC(=O)[C@H](CCN)NC1=O` [Compound 1738] ({CH2CO}-[Dap]Y(Carboxymethyl)DWV[Bip]V[Orn][dL][Dab][Cha]V[Dap]CA-NH2; thioether N-14), the half-inhibitory concentration (IC50) came out at 8.3 nM.
For `CC(C)C[C@H]1NC(=O)[C@H](CCCN)NC(=O)[C@H](C(C)C)NC(=O)[C@H](Cc2ccc(-c3ccccc3)cc2)NC(=O)[C@H](C(C)C)NC(=O)[C@H](Cc2c[nH]c3ccccc23)NC(=O)[C@H](CC(=O)O)NC(=O)[C@H](Cc2ccc(C(=O)O)cc2)NC(=O)[C@H](Cc2ccc(OCC(=O)O)cc2)NC(=O)CSC[C@@H](C(=O)N[C@@H](C)C(N)=O)NC(=O)[C@H](CN)NC(=O)[C@H](C(C)C)NC(=O)[C@H](CC2CCCCC2)NC(=O)[C@H](CCN)NC1=O` [Compound 1739] ({CH2CO}-Y(Carboxymethyl)[Phe(4-COOH)]DWV[Bip]V[Orn][dL][Dab][Cha]V[Dap]CA-NH2; thioether N-14), the IC50 was found to be 9.9 nM.
Still for that read-out and setting: for `CC(C)C[C@H]1NC(=O)[C@H](CCCN)NC(=O)[C@H](C(C)C)NC(=O)[C@H](Cc2ccc(-c3ccccc3)cc2)NC(=O)[C@H](C(C)C)NC(=O)[C@H](Cc2c[nH]c3ccccc23)NC(=O)[C@H](CC(=O)O)NC(=O)[C@H](Cc2ccc(OCC(=O)O)cc2)NC(=O)[C@H](Cc2ccc(OCC(=O)O)cc2)NC(=O)CSC[C@@H](C(=O)N[C@@H](C)C(N)=O)NC(=O)[C@H](CN)NC(=O)[C@H](C(C)C)NC(=O)[C@H](CC2CCCCC2)NC(=O)[C@H](CCN)NC1=O` [Compound 1740] ({CH2CO}-Y(Carboxymethyl)Y(Carboxymethyl)DWV[Bip]V[Orn][dL][Dab][Cha]V[Dap]CA-NH2; thioether N-14) the value was 6.1 nM.
Take `CC(C)C[C@H]1NC(=O)[C@H](CCCN)NC(=O)[C@H](C(C)C)NC(=O)[C@H](Cc2ccc(-c3ccccc3)cc2)NC(=O)[C@H](C(C)C)NC(=O)[C@H](Cc2c[nH]c3ccccc23)NC(=O)[C@H](CC(=O)O)NC(=O)[C@H](Cc2ccc(OCC(=O)O)cc2)NC(=O)[C@H](CN)NC(=O)CSC[C@@H](C(=O)N[C@@H](C)C(N)=O)NC(=O)[C@H](CCCN)NC(=O)[C@H](C(C)C)NC(=O)[C@H](CC2CCCCC2)NC(=O)[C@H](CCN)NC1=O` [Compound 1741] ({CH2CO}-[Dap]Y(Carboxymethyl)DWV[Bip]V[Orn][dL][Dab][Cha]V[Orn]CA-NH2; thioether N-14): the half-inhibitory concentration (IC50) was 8.8 nM.
The same measure, in the same setting: under `CC(C)C[C@H]1NC(=O)[C@H](CCCN)NC(=O)[C@H](C(C)C)NC(=O)[C@H](Cc2ccc(-c3ccccc3)cc2)NC(=O)[C@H](C(C)C)NC(=O)[C@H](Cc2c[nH]c3ccccc23)NC(=O)[C@H](CC(=O)O)NC(=O)[C@H](Cc2ccc(C(=O)O)cc2)NC(=O)[C@H](Cc2ccc(OCC(=O)O)cc2)NC(=O)CSC[C@@H](C(=O)N[C@@H](C)C(N)=O)NC(=O)[C@H](CCCN)NC(=O)[C@H](C(C)C)NC(=O)[C@H](CC2CCCCC2)NC(=O)[C@H](CCN)NC1=O` [Compound 1742] ({CH2CO}-Y(Carboxymethyl)[Phe(4-COOH)]DWV[Bip]V[Orn][dL][Dab][Cha]V[Orn]CA-NH2; thioether N-14) stands 6.6 nM.
On the same count and under the same terms, for `CC(C)C[C@H]1NC(=O)[C@H](CCCN)NC(=O)[C@H](C(C)C)NC(=O)[C@H](Cc2ccc(-c3ccccc3)cc2)NC(=O)[C@H](C(C)C)NC(=O)[C@H](Cc2c[nH]c3ccccc23)NC(=O)[C@H](CC(=O)O)NC(=O)[C@H](Cc2ccc(OCC(=O)O)cc2)NC(=O)[C@H](Cc2ccc(OCC(=O)O)cc2)NC(=O)CSC[C@@H](C(=O)N[C@@H](C)C(N)=O)NC(=O)[C@H](CCCN)NC(=O)[C@H](C(C)C)NC(=O)[C@H](CC2CCCCC2)NC(=O)[C@H](CCN)NC1=O` [Compound 1743] ({CH2CO}-Y(Carboxymethyl)Y(Carboxymethyl)DWV[Bip]V[Orn][dL][Dab][Cha]V[Orn]CA-NH2; thioether N-14) the value was 6 nM.

For orientation: IC50 means the concentration needed to halve the response being measured.
